{
  "source": "patent US20250241925A1",
  "about": "“METHODS OF P21 SUPPRESSION FOR BONE REGENERATION AND HEALING” (UWM Research Foundation, Inc., priority 2022, published 2025)",
  "key": {"Sp7 (Osterix)": {"test_system": "Sp7 (Osterix)", "assay": "Gene expression analysis (qPCR, ΔΔCt) in HuMSCs: Sp7", "format": "cell-based, human", "conditions": "7 days", "description": "(§1) Human umbilical cord derived mesenchymal stem cells (HuMSCs) were plated in a 24 well plate at a density of 30,000 cells per well. Samples were divided as controls—no drug, no differentiation media; osteogenic control—no drug, DMEM media supplemented with factors to induce osteogenesis including dexamethasone, L-ascorbic acid, and beta-glycerol phosphate; 2.5, 5, and 10 μM wells consisted of DMEM media supplemented respective concentrations of UC2288. Media was renewed in all wells every other day. After 7 days, all samples were processed to extract total RNA. Next, cDNA was produced and qPCR was performed for gene expression analyses. Three genes of interest were analyzed-RunX2, Sp7 (Osterix), and CDKN1A (p21). RunX2 and Sp7 are genes responsible for osteoblast differentiation and take part in osteogenesis. To analyze the data, the ΔΔCt method was employed against an 18s endogenous control and DMEM media without differentiation factors or drugs as reference controls. The ΔΔCt can be described as:\n(§2) Relative mRNA expression of sample=2^−ΔΔCt of sample,\n(§3) where ΔΔCt of sample=(Ct of sample−Ct of 18s of sample)−(Ct of reference control−Ct of 18s of reference control)."}, "fractured tibiae": {"test_system": "fractured tibiae", "assay": "MicroCT imaging of fracture healing in mice after post-fracture UC2288 injection (Example 4)", "format": "in vivo", "conditions": "five 0.1 mL 10 μM injections at days 3, 5, 7, 10, 14; 21 days post-injury", "description": "Male wildtype mice (n=10) aged between 8-10 weeks were selected for this study. Future experiments will also include aged mice (e.g., ˜18 months of age). […] The mice had their tibiae fractured at the beginning of the study. Five mice were considered controls and received five injections of saline solution at days 3, 5, 7, 10, and 14 post-injury. The other five mice were injected five times with 0.1 mL 10 μM of UC2288 solution at days 3, 5, 7, 10, and 14 post-injury. At 21 days post-injury, mice were sacrificed, and their tibiae were excised. These bones were imaged using a microCT system that can differentiate between bone and soft tissue."}, "MSCs [1]": {"test_system": "MSCs", "assay": "Cytotoxicity (MTT assay) of UC2288 in purified MSCs", "format": "cell-based, mouse (C57BL/6)", "description": "All procedures with animals were approved by the IACUC at the University of Wisconsin-Milwaukee. The mice used for this study were C57BL/6 (Charles River, MA). Fifteen 8-week-old male mice were euthanized by CO2 inhalation. After checking for a heartbeat, a cervical dislocation was performed followed by checking for any signs of breathing again for precautionary measures. After confirming that there were no signs of breathing, the tibia and the femur were extracted and placed in phosphate buffered saline (PBS) (Corning Inc., NY). A bone marrow flush with a 23-gauge, 0.5-inch needle (Becton Dickinson, NJ) was performed in a biosafety hood and the pelleted bone marrow cell suspension was plated in a 60×15 mm Primaria cell culture dish (Corning Inc., NY) in MesenCult Basal Medium (Mouse) that contained 50 mL MesenCult 10× Supplement (Mouse) and 0.5 mL MesenPure 1000× (STEMCELL Technologies, Vancouver, Canada). The plates were incubated at 37° C. in a 5% CO2 humidified atmosphere. After 24 hours, half the medium volume was removed, and fresh medium was added. The media in the cultures were renewed every other day. As the cells reached confluency, they were detached by treatment with 0.5% Trypsin-EDTA (Thermo Fisher Scientific, MA) and replated into a 100×20 mm Primaria cell culture dish (Corning Inc.) and eventually into a T-25-cm^2 Primaria flask (Corning Inc, NY). […]"}, "MSCs [2]": {"test_system": "MSCs", "assay": "Osteogenic differentiation of MSCs, Alizarin Red S staining of calcium deposits", "format": "cell-based, mouse (C57BL/6)", "description": "In order to test whether UC2288 can improve osteogenic capacity of MSCs, the purified MSCs were differentiated into osteoblasts after interaction with UC2288. For osteogenic differentiation experiment, 84,000 cells were added into wells of a 24-well plate (Corning Inc., NY). Each concentration of UC2288, i.e., 2.5 μM, 5 μM, and 10 μM were tested in triplicates along with their controls which had no drugs but simply DMEM media and incubated for a period of 24- and 48-hours. After the designated time periods, the drug solutions were aspirated out of each well. To test for osteogenesis at different concentrations, relevant media were added to cells and renewed every other day for up to 21 days.\nThe osteogenic media consisted of 1 nM of dexamethasone, 50 μg/mL of L-Ascorbic acid, and 10 mM of β-glycerophosphate (Sigma-Aldrich, MO) in 50 mL DMEM.\nAfter 21 days of culture, cells were stained following the appropriate staining protocol. […]\nThis experiment tested the ability of cells that interacted with the UC2288 drug to generate bone-forming osteoblast cells. […] After staining each well by following an osteogenic staining protocol, the area of the stains was analyzed using ImageJ and the data were graphed in GraphPad Prism. […]"}, "CDKN1A (p21)": {"test_system": "CDKN1A (p21)", "assay": "Gene expression analysis (qPCR, ΔΔCt) in HuMSCs: p21", "format": "cell-based, human", "conditions": "7 days", "description": "as §1, §2, §3"}, "RunX2": {"test_system": "RunX2", "assay": "Gene expression analysis (qPCR, ΔΔCt) in HuMSCs: RunX2", "format": "cell-based, human", "conditions": "7 days", "description": "as §1, §2, §3"}, "[3]": {"test_system": "transverse tibial fracture", "assay": "Microtomography imaging of transverse tibial fracture callus (Example 6)", "format": "in vivo, C57BI/6 wildtype mice", "conditions": "10 μM, 0.1 mL at days 3, 5, 7, 10, 14; 4 weeks post-fracture", "description": "All protocols were approved by IACUC at UWM. C57BI/6 wildtype mice at 8 weeks of age were administered a transverse tibial fracture. The mice were injected with 10 μM of UC2288 solution at a volume of 0.1 mL at days 3, 5, 7, 10, and 14. The mice were sacrificed 4 weeks post-fracture and their tibiae were excised. The bone samples were placed in 10% formalin for two days followed by placement in 70% ethanol until they were ready for microCT imaging. Each sample was placed on a holder and few drops of phosphate buffered saline were placed along with the sample. The sample was scanned using a microCt (Zeiss Xradia Versa X-ray microscope) scanner at a 15 μm thickness per slice. The data was contoured using MIMICS (Materialise NV) followed by data analysis via Python. […] See FIG. 7A-B. The black and white images show where bone was automatically thresholded via ImageJ."}},
  "data": [
    {"compound": "O=C(Nc1ccc(Cl)c(C(F)(F)F)c1)N[C@H]1CC[C@H](Oc2ccc(C(F)(F)F)cn2)CC1", "note": "[UC2288, 1-(4-chloro-3-(trifluoromethyl)phenyl)-3-((1r,4r)-4-((5-(trifluoromethyl)pyridin-2-yl)oxy)cyclohexyl)urea]", "values": [
      {"measurement": "Sp7 expression compared to the osteogenic positive control", "setting": "Sp7 (Osterix); 5 μM", "result": "increased osteogenic potential"},
      {"measurement": "Sp7 expression compared to the osteogenic positive control", "setting": "Sp7 (Osterix); 10 μM", "result": "increased osteogenic potential"},
      {"measurement": "Sp7 expression compared to the control", "setting": "Sp7 (Osterix); all concentrations (2.5, 5, 10 μM)", "result": "increased osteogenic gene expression"},
      {"measurement": "bone formation/healing versus saline control mice (microCT)", "setting": "fractured tibiae", "result": "more bone formation/healing"},
      {"measurement": "proliferation of the MSCs (MTT, absorbance 540 nm) versus positive control DMEM media", "setting": "MSCs [1]; 2.5, 5 and 10 μM UC2288, 24 hours", "result": "No significant difference"},
      {"measurement": "proliferation of the MSCs (MTT, absorbance 540 nm) versus positive control DMEM media", "setting": "MSCs [1]; 2.5, 5 and 10 μM UC2288, 48 hours", "result": "No significant difference"},
      {"measurement": "area of osteogenic stained cells, comparison of 2.5, 5 and 10 μM", "setting": "MSCs [2]; 5 μM UC2288 at 24 hr", "result": "most osteogenic stained cells"},
      {"measurement": "staining for calcium deposits in osteoblasts from MSCs versus DMEM control", "setting": "MSCs [2]; 10 μM UC2288 for 24 hr, 21 days osteogenic culture", "result": "Greater staining"},
      {"measurement": "expression of p21 in HuMSCs", "setting": "CDKN1A (p21); 2.5 μM", "result": "reduced p21 expression"},
      {"measurement": "expression of p21 in HuMSCs", "setting": "CDKN1A (p21); 5 μM", "result": "reduced p21 expression"},
      {"measurement": "expression of p21 in HuMSCs", "setting": "CDKN1A (p21); 10 μM", "result": "increased expression"},
      {"measurement": "effect on osteogenic markers compared to 2.5 and 10 μM", "setting": "RunX2; 5 μM", "result": "most significant effect"},
      {"measurement": "RunX2 expression compared to controls", "setting": "RunX2; 2.5, 5, 10 μM", "result": "increased osteogenic potential"},
      {"measurement": "RunX2 expression compared to the osteogenic control", "setting": "RunX2; 2.5, 5, 10 μM", "result": "less than the osteogenic control"},
      {"measurement": "callus Surface Area (microCT)", "setting": "[3]", "result": 0.1147, "unit": "mm^2"},
      {"measurement": "callus Surface Area Pixels (microCT)", "setting": "[3]", "result": 7611878.877, "unit": "Pixels"},
      {"measurement": "callus Volume (microCT)", "setting": "[3]", "result": 0.4206, "unit": "mm^3"},
      {"measurement": "callus Volume Pixels (microCT)", "setting": "[3]", "result": 27919486, "unit": "Pixels"}
    ]}
  ]
}
